# Values of other authors as cited in patent US9192673B2, “Fine dry particulate resveratrol active agent compositions and topical formulations including the same” (priority 2013, dated 2015).
# Conditions: background statement
smiles,measurement,value
"Oc1ccc(/C=C/c2cc(O)cc(O)c2)cc1 [resveratrol, 3,5,4′-trihydroxystilbene]",solubility in water and in lipophilic components,almost insoluble
